Experiment [1] addresses T1, murine mastocytoma P815 cells overexpressing hTDO2 (Homo sapiens, UniProt P48775).
T1 construct: expressed in transfected cells; host or cells: murine mastocytoma P815 cells
In words: Cellular assay for TDO2 activity, hTDO2-overexpressing P815 cells. Particulars: P815 cells overexpressing hTDO2, overnight incubation, kynurenine in supernatant. The format is cell-based. Here is the method:
The assay (adapted from Pilotte L et al., Proc Natl Acad Sci USA, 2012, 109(7), 2497-502) was performed in 96-well flat bottom plates seeded with murine mastocytoma P815 cells overexpressing hTDO2 (prepared as described in Pilotte et al., PNAS, 2012, 109(7), 2497-2502), at a concentration of 5×10^4 cells/well in a final volume of 200 μL. To determine TDO or IDO activity, the cells were incubated overnight at 37° C. at 5% CO2 in IMDM (Invitrogen) supplemented with 2% FBS and 2% penicillin/streptomycin in the presence of the compounds of the present invention, at different concentrations. The cells may be obtained from the American Type Cuylture Collecion [ATCC® TIB-64™ or commercially, e.g., from Sigma-Aldrich or Life Technologies.]
The plates were then centrifuged 5 min at 1000 rpm, and 100 μL of the supernatant were collected in a conical plate, 30 uL of TCA 30% were added and a further centrifugated at 3000×g for 10 minutes. 100 μL of the supernatant were collected in a flat bottomed plate and 100 μL of 2% (w/v) 4-(dimethylamino)-benzaldehyde in acetic acid and incubated for 5 min at room temperature. Kynurenine concentrations were determined by measuring the absorbance at 480 nm. A standard curve was made with pure kynurenine. The TDO activity was measured as described above using ten serial concentrations of the compounds of the present invention. Data were fitted using the Prism™ software (GraphPad Software, Inc.) using standard parameters.

The target in experiment [2] is T2, human recombinant TDO2 enzyme (Homo sapiens, UniProt P48775).
T2 construct: made in house
Kind of experiment: Assay for TDO2 enzymatic activity determination. Format: biochemical. The note with it: human recombinant TDO2, L-Trp 1 mM, kynurenine absorbance at 480 nm. Here is the method: To measure the TDO2 activity, the procedure described in Dolusic et al. J. Med. Chem.; 2011, 54, […] was adapted: the reaction mixture contained (final concentrations) potassium phosphate buffer (50 mM, pH 7.5), ascorbic acid (0.25 M), methylene blue (0.125 μM), catalase (40 units/mL, from bovine liver, Sigma), and human recombinant TDO2 enzyme (prepared as described in Dolusic et al. J. Med. Chem.; 2011, 54, 5320-5334; 0.9 μg) without or with the compounds of the present invention at the indicated concentrations (total volume 112.5 μL). The reaction was initiated by the addition of 37.5 μL of L-Trp (final concentration 1 mM) at room temperature. The reaction was conducted at room temperature during one hour and stopped by the addition of 30 μL of 30% (w/v) trichloroacetic acid.
To convert N-formylkynurenine into kynurenine, the reaction mixture was incubated at 65° C. for 30 min. Then 150 μL of the reaction mixture was mixed with 120 μL of 2.5% (w/v) 4-(dimethylamino)-benzaldehyde in acetic acid and incubated for 5 min at room temperature. Kynurenine concentrations were determined by measuring the absorbance at 480 nm. A standard curve was made with pure kynurenine. The TDO activity was measured as described above using ten serial concentrations of the compounds of the present invention. Data were fitted using the Prism™ software (GraphPad Software, Inc.) using standard parameters.

The target of experiment [3] is T3, human glioblastoma A172 cells, naturally expressing hTDO2 (Homo sapiens, UniProt P48775).
T3 construct: human glioblastoma A172 cells, naturally expressing hTDO2; endogenous in cells; host or cells: human glioblastoma A172 cells (ATCC CRL-1620)
In words: Cellular assay for TDO2 activity, A172 cells. The format is cell-based. Particulars: overnight incubation, kynurenine in supernatant. In a few lines:
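A172 human glioblastoma cells naturally expressing TDO2, seeded at 1.25×10^4 cells/well, were incubated overnight at 37 °C in IMDM with 2% FBS and ten serial compound concentrations. Supernatant kynurenine, after TCA precipitation and Ehrlich's reagent, was read at 480 nm against a kynurenine standard curve; data curve-fitted.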

Usually IC50 stands for the concentration needed to halve the response being measured.

T1 sequence (P48775 whole entry): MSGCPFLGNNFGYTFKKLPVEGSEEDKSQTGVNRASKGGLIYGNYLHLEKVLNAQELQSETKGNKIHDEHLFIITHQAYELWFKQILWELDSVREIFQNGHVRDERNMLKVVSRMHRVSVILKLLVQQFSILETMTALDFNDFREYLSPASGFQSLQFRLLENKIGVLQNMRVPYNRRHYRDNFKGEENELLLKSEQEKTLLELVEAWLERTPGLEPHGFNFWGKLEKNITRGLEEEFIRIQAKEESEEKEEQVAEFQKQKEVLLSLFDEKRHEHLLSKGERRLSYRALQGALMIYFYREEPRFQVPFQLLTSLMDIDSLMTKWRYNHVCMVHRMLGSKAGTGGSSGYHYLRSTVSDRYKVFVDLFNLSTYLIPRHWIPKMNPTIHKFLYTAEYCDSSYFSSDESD
T2 sequence (P48775 whole entry): as above
T3 sequence (P48775 whole entry): as above

Regarding `NCCc1nc2ccc(-c3c[nH]c4cc(F)ccc34)cc2[nH]1` [Compound 35, 2-(6-(6-fluoro-1H-indol-3-yl)-1H-benzo[d]imidazol-2-yl)ethanamine], in experiment [1], the IC50 came to 689 nM.

For `CN1CCN(Cc2nc3ccc(-c4c[nH]c5cc(F)ccc45)cc3[nH]2)CC1` [Compound 33, 6-(6-fluoro-1H-indol-3-yl)-2-((4-methylpiperazin-1-yl)methyl)-1H-benzo[d]imidazole], the IC50 in experiment [1] was determined as 635 nM.

For the molecule `CS(=O)(=O)NCCc1nc2ccc(-c3c[nH]c4cc(F)ccc34)cc2[nH]1` [Compound 37, N-(2-(6-(6-fluoro-1H-indol-3-yl)-1H-benzo[d]imidazol-2-yl)ethyl)methanesulfonamide], the IC50 in experiment [1] worked out at 1530 nM.

Consider `Fc1ccc2c(-c3ccc4[nH]c(CN5CCOCC5)nc4c3)c[nH]c2c1` [Compound 45, 4-((5-(6-fluoro-1H-indol-3-yl)-1H-benzo[d]imidazol-2-yl)methyl)morpholine], for which the IC50 in experiment [1] was determined as 595 nM.

Turning to `CC(=O)NCc1nc2ccc(-c3c[nH]c4cc(F)ccc34)cc2[nH]1` [Compound 30, N-((6-(6-fluoro-1H-indol-3-yl)-1H-benzo[d]imidazol-2-yl)methyl)acetamide], the IC50 in experiment [1] turned out to be 896 nM.

In the case of `CN(C)Cc1nc2ccc(-c3c[nH]c4cc(F)ccc34)cc2[nH]1` [Compound 28, 1-(6-(6-fluoro-1H-indol-3-yl)-1H-benzo[d]imidazol-2-yl)-N,N-dimethylmethanamine], in experiment [1], the IC50 turned out to be 1450 nM.

Turning to `CS(=O)(=O)NCc1nc2ccc(-c3c[nH]c4cc(F)ccc34)cc2[nH]1` [Compound 32, N-((6-(6-fluoro-1H-indol-3-yl)-1H-benzo[d]imidazol-2-yl)methyl)methanesulfonamide], in experiment [1], half-maximal inhibition (IC50) required 460 nM.

The molecule `CC(=O)NCCc1nc2ccc(-c3c[nH]c4cc(F)ccc34)cc2[nH]1` [Compound 36, N-(2-(6-(6-fluoro-1H-indol-3-yl)-1H-benzo[d]imidazol-2-yl)ethyl)acetamide] came in with an IC50 in experiment [1] of 1130 nM.

As to `Cc1nc2ccc(-c3c[nH]c4cc(F)ccc34)cc2o1` [Compound 54, 6-(6-fluoro-1H-indol-3-yl)-2-methylbenzo[d]oxazole], the IC50 in experiment [1] turned out to be 109 nM.

In experiment [1], `NC(=O)Cc1nc2ccc(-c3c[nH]c4cc(F)ccc34)cc2[nH]1` [Compound 60, 2-(6-(6-fluoro-1H-indol-3-yl)-1H-benzo[d]imidazol-2-yl)acetamide] returned a half-inhibitory concentration (IC50) of 638 nM.

As for `CN1CCN(CCS(=O)(=O)NCc2nc3ccc(-c4c[nH]c5cc(F)ccc45)cc3o2)CC1` [Compound 122, N-((6-(6-fluoro-1H-indol-3-yl)benzo[d]oxazol-2-yl)methyl)-2-(4-methylpiperazin-1-yl)ethanesulfonamide], the results for the IC50 in experiment [2] and in experiment [3] were 2090 nM and 344 nM, respectively.

`Fc1ccc2c(-c3ccc4nc(C5CCNCC5)[nH]c4c3)c[nH]c2c1` [Compound 39, 6-(6-fluoro-1H-indol-3-yl)-2-(piperidin-4-yl)-1H-benzo[d]imidazole] yielded an IC50 in experiment [1] of 2860 nM.

For the molecule `NC(=O)CCn1cc2cc(-c3c[nH]c4cc(F)ccc34)ccc2n1` [Compound 22, 3-(5-(6-fluoro-1H-indol-3-yl)-2H-indazol-2-yl)propanamide], the IC50 worked out at 539 nM in experiment [2] and 176 nM in experiment [3].

On to `NC(=O)NCc1nc2ccc(-c3c[nH]c4cc(F)ccc34)cc2o1` [Compound 102, 1-((6-(6-fluoro-1H-indol-3-yl)benzo[d]oxazol-2-yl)methyl)urea], for which the IC50 turned out to be 835 nM in experiment [2] and 261 nM in experiment [3].

As to `CS(=O)(=O)NCc1nc2ccc(-c3c[nH]c4ccc(F)cc34)cc2o1` [Compound 128, N-((6-(5-fluoro-1H-indol-3-yl)benzo[d]oxazol-2-yl)methyl)methanesulfonamide], the values for the IC50 in experiment [2] and in experiment [3] were 6070 nM and 540 nM, respectively.

For `NCc1nc2ccc(-c3c[nH]c4cc(F)ccc34)cc2[nH]1` [Compound 27, (6-(6-fluoro-1H-indol-3-yl)-1H-benzo[d]imidazol-2-yl)methanamine], in experiment [1], the IC50 worked out at 678 nM.

`O=C1NS(=O)(=O)c2ccc(-c3c[nH]c4cc(F)ccc34)cc21` [Compound 130, 5-(6-fluoro-1H-indol-3-yl)benzo[d]isothiazol-3(2H)-one 1,1-dioxide]: the concentration for half-maximal inhibition (IC50) came to 2420 nM in experiment [2] and 83 nM in experiment [3].

Regarding `NC(=O)Cn1cc2cc(-c3c[nH]c4cc(F)ccc34)ccc2n1` [Compound 20, 2-(5-(6-fluoro-1H-indol-3-yl)-2H-indazol-2-yl)acetamide], the IC50 amounted to 421 nM in experiment [2] and 169 nM in experiment [3].

Regarding `O=C1Cc2cc(-c3c[nH]c4cc(F)ccc34)ccc2N1` [Compound 97, 5-(6-fluoro-1H-indol-3-yl)indolin-2-one], the IC50 in experiment [2] is 716 nM; in experiment [3], 284 nM.

For `Fc1ccc2c(-c3ccc4ncoc4c3)c[nH]c2c1` [Compound 53, 6-(6-fluoro-1H-indol-3-yl)benzo[d]oxazole], it took 79 nM to reach half-maximal inhibition in experiment [1] (IC50).

In experiment [1], `Cc1nc2cc(-c3c[nH]c4cc(F)ccc34)ccc2o1` [Compound 48, 5-(6-fluoro-1H-indol-3-yl)-2-methylbenzo[d]oxazole] showed an IC50 of 118 nM.

On to `O=S(=O)(CCO)NCc1nc2ccc(-c3c[nH]c4cc(F)ccc34)cc2o1` [Compound 106, N-((6-(6-fluoro-1H-indol-3-yl)benzo[d]oxazol-2-yl)methyl)-2-hydroxyethanesulfonamide], for which the values for the IC50 in experiment [2] and in experiment [3] were 814 nM and 326 nM, respectively.

Consider `CN1CCN(CCc2nc3ccc(-c4c[nH]c5cc(F)ccc45)cc3o2)CC1` [Compound 105, 6-(6-fluoro-1H-indol-3-yl)-2-(2-(4-methylpiperazin-1-yl)ethyl)benzo[d]oxazole], for which the values for the IC50 in experiment [2] and in experiment [3] were 913 nM and 223 nM, respectively.

`CS(=O)(=O)N1CCN(Cc2nc3cc(-c4c[nH]c5cc(F)ccc45)ccc3[nH]2)CC1` [Compound 34, 5-(6-fluoro-1H-indol-3-yl)-2-((4-(methylsulfonyl)piperazin-1-yl)methyl)-1H-benzo[d]imidazole]: half-maximal inhibition in experiment [1] (IC50) required 863 nM.

Molecule `CS(=O)(=O)N1CCC(c2nc3ccc(-c4c[nH]c5cc(F)ccc45)cc3[nH]2)CC1` [Compound 40, 6-(6-fluoro-1H-indol-3-yl)-2-(1-(methylsulfonyl)piperidin-4-yl)-1H-benzo[d]imidazole] had an IC50 in experiment [1] of 750 nM.

In experiment [1], `NCC(=O)NCc1nc2ccc(-c3c[nH]c4cc(F)ccc34)cc2[nH]1` [Compound 31, 2-amino-N-((6-(6-fluoro-1H-indol-3-yl)-1H-benzo[d]imidazol-2-yl)methyl)acetamide] displayed a half-maximal inhibitory concentration (IC50) of 2300 nM.

For the molecule `NC(=O)CCn1ncc2cc(-c3c[nH]c4cc(F)ccc34)ccc21` [Compound 12, 3-(5-(6-fluoro-1H-indol-3-yl)-1H-indazol-1-yl)propanamide], the results for the IC50 in experiment [2] and in experiment [3] were 709 nM and 517 nM, respectively.

In turn, `Fc1ccc2c(-c3ccc4nc(CN5CCNCC5)[nH]c4c3)c[nH]c2c1` [Compound 59, 6-(6-fluoro-1H-indol-3-yl)-2-(piperazin-1-ylmethyl)-1H-benzo[d]imidazole] came in with a half-maximal inhibitory concentration (IC50) in experiment [1] of 622 nM.

On to `O=S(=O)(CCN1CCOCC1)NCc1nc2ccc(-c3c[nH]c4cc(F)ccc34)cc2o1` [Compound 107, N-((6-(6-fluoro-1H-indol-3-yl)benzo[d]oxazol-2-yl)methyl)-2-morpholinoethanesulfonamide], for which the IC50 in experiment [2] came to 2800 nM; in experiment [3], 677 nM.

Consider `CS(=O)(=O)CCc1nc2ccc(-c3c[nH]c4cc(F)ccc34)cc2o1` [Compound 101, 6-(6-fluoro-1H-indol-3-yl)-2-(2-(methylsulfonyl)ethyl)benzo[d]oxazole], for which the IC50 in experiment [2] is 1380 nM; in experiment [3] it was 153 nM.
